Key:
[1] = system: male SHR; assay: Assay XIII: renal blood flow experiments in anesthetized SHR (renal denervation, bulbocapnine); format: in vivo, rat; conditions: for Mean arterial pressure / Renal Blood Flow: conjugate alone
Protocol: This experiment was run to determine the roles of the renal sympathetic nerves and dopamine in the antihypertensive response to Ex. #859. For renal blood flow experiments, male SHR (11-13 weeks of age; Harlan Sprague-Dawley, Inc., Indianapolis, Ind.) were anesthetized (Inactin, 100 mg/kg, i.p.), catheters were implanted in a jugular vein and carotid artery, and an electromagnetic flow probe (Carolina Medical Electronics, Inc., King, N.C.) was placed on the left renal artery. Care was taken not to damage the renal nerves. A tracheal catheter maintained airway patency. The SHR were placed on a heated pad to maintain normal body temperature (Harvard Apparatus, South Natick, Mass.). In one group of SHR (n=6) surgical renal denervation was performed (prior to implanting the flow probe) through a left flank incision by surgically stripping the renal artery and vein of adventitia and cutting all visible renal nerve bundles under a dissection microscope (×25) and coating the vessels with a solution of 10% phenol in 95% ethanol, as previously described (9,10). In a second group of SHR (n=6) bulbocapnine (a dopamine receptor antagonist) was infused at 100 μg/kg/min starting 30 minutes prior to injection of Ex. #859 (50 mg/kg, i.v.) and continued for the duration of the study. In a third group of SHR (n=6) Ex. #859 (50 mg/kg, i.v.) was administered alone. In a final group of SHR (n=6) vehicle (0.9% NaCl) was administered. SHR were allowed 60 minutes for stabilization after surgery. After the stabilization period, 15 minutes of control mean arterial pressure and renal blood flow were obtained. Mean arterial pressure and renal blood flow were recorded for one hour.

[2] = Assay IV: metabolism of conjugate to fusaric acid in rat kidney homogenate; format: in vitro ADME
Protocol: A freshly excised rat kidney was homogenized in 10 ml cold buffer (100 mM Tris, 15 mM glycylglycine, pH 7.4) with a Polytron Tissue Homogenizer (Brinkmann). The resulting suspension, diluted with buffer, was incubated in the presence of the Ex. #859 conjugate at 37° C. At various times aliquots were removed, deproteinized with an equal volume of cold trichloroacetic acid (25%) and centrifuged. The supernatant was injected onto a C-18 reverse-phase HPLC column and eluted isocratically with a mixture of acetonitrile and water (20:80 v/v) containing trifluoroacetic acid (0.05%). Eluted compounds were monitored by absorbance at 254 nm and compared to standards run under identical conditions. In the assay using pure kidney enzyme homogenate, the Ex. #859 conjugate was also incubated under the same conditions as described except that 5 mg of gamma-glutamyl transpeptidase (Sigma, 23 units/mg) and 10 mg of acylase I (Sigma, 4800 units/mg) were added in place of the homogenate. Analysis by HPLC was performed in a manner identical to that used for the kidney homogenate experiment.

[3] = system: SHR; assay: Assay VIII: chronic 5 day i.v. infusion, mean arterial pressure in SHR; format: in vivo, rat; conditions: for chronic effect on mean arterial pressure compared to vehicle: SHR, 5 day infusion, Ex. #859 5 mg/hr, fusaric acid 2.5 mg/hr
Protocol: The Ex. #859 conjugate and saline vehicle were infused continuously for 5 days in SHR. Mean arterial pressure was measured (Gould Chart Recorder, model 3800; Statham P23Db pressure transducer) via an indwelling femoral artery catheter between 10:00 a.m. and 2:00 p.m. each day. The Ex. #859 conjugate (5 mg/hr), fusaric acid (2.5 mg/hr), and saline (100 μ1/hr) were infused via a jugular vein catheter with a Harvard infusion pump.

[4] = system: Spontaneously Hypertensive Rats (SHR); assay: Assay VII: acute effects on arterial pressure in anesthetized SHR; format: in vivo, rat; conditions: for Mean arterial pressure: i.v.: fusaric acid and fusaric acid hydrazide 100 mg/kg, Ex. #859 250 mg/kg
Protocol: Mean arterial pressure effects of fusaric acid hydrazide (100 mg/kg, i.v.), fusaric acid (100 mg/kg, i.v.) and Ex. #859 conjugate (250 mg/kg, i.v.) are shown in Table XXVII during a vehicle control period and 60 min post-injection of compound in anesthetized SHR. Rats were prepared as described above, minus the renal artery flow probe.

[5] = system: spontaneously hypertensive rats; assay: Assay VI: acute in vivo effects on mean arterial pressure and renal blood flow in anesthetized SHR (i.v. or i.d.); design: species or system rat; conditions: for MAP / RBF / acute effect on mean arterial pressure / acute effect on renal blood flow: 50 mg/kg i.v.
Protocol: Spontaneously hypertensive rats were anesthetized with inactin (100 mg/kg, i.p.) and catheters were implanted into a carotid artery for measurement of mean arterial pressure (Gould model 3800 chart recorder; Statham pressure transducer model no. P23DB) and into a jugular vein for compound administrations (i.v. or i.d.). In addition, a flow probe was implanted around the left renal artery for measurement of renal blood flow using pulsed Doppler flowmetry. Rats were allowed 60 min to stabilize before 10 minutes of control recordings of mean arterial pressure and renal blood flow were obtained. Control measurements were followed by intravenous injection of 50 mg/kg of fusaric acid or the Ex. #859 conjugate. […] The Ex. #859 conjugate had no effect on mean arterial pressure at a dose of 100 mg/kg (n=4) during a 60 minute observation period. Renal blood flow (n=4) was unchanged 15 minutes after injection of the Ex. #859 conjugate but increased from 1.1 KHz (control period) to 3.5 KHz at 30 minutes postinjection.

[6] = anesthetized SHR, 60 minute observation

CCCCc1ccc(C(=O)NNC(=O)CCC(NC(C)=O)C(=O)O)nc1 [Ex. #859, N-acetyl-L-glutamic acid, 5-[(5-butyl-2-pyridinyl)-carbonyl]hydrazide]
effect on renal blood flow ([1]; anesthetized SHR, 50 mg/kg i.v. after surgical renal denervation): not changed | effect on renal blood flow ([1]; anesthetized SHR, 50 mg/kg i.v. alone, 60 minutes after injection): increased | effect on renal blood flow ([1]; anesthetized SHR, 50 mg/kg i.v. during bulbocapnine infusion (100 μg/kg/min)): not changed | effect on mean arterial pressure ([1]; anesthetized SHR, 50 mg/kg i.v., all groups): not changed | Mean arterial pressure ([1]; time 0 minutes): 149 ± 8 mmHg | Renal Blood Flow ([1]; time 0 minutes): 7 ± 2 mL/min | Mean arterial pressure ([1]; time 60 minutes): 149 ± 7 mmHg | Renal Blood Flow ([1]; time 60 minutes): 12 ± 2 mL/min | amount of fusaric acid liberated on incubation ([2]; kidney homogenate, 37° C): linear increase | other metabolites observed (fusaric acid hydrazide, gamma-glutamyl fusaric acid hydrazide) ([2]; kidney homogenate, 37° C): No fusaric acid hydrazide or gamma-glutamyl fusaric acid hydrazide was observed | MAP (SE) ([3]; 5 mg/hr i.v. infusion, day 1): 122 ± 9 mm Hg | MAP (SE) ([3]; 5 mg/hr i.v. infusion, day 2): 115 ± 9 mm Hg | MAP (SE) ([3]; 5 mg/hr i.v. infusion, day 3): 119 ± 11 mm Hg | MAP (SE) ([3]; 5 mg/hr i.v. infusion, day 4): 121 ± 7 mm Hg | MAP (SE) ([3]; 5 mg/hr i.v. infusion, day 5): 115 ± 8 mm Hg | MAP (SE) ([3]; 5 mg/hr i.v. infusion, day zero): 146 ± 5 mm Hg | chronic effect on mean arterial pressure compared to vehicle [3]: lowered mean arterial pressure similarly | melting point: 191.5 to 192 °C | Mean arterial pressure ([4]; 60 MIN post-injection): 146 ± 15 mmHg | Mean arterial pressure ([4]; ZERO (vehicle control period)): 151 ± 9 mmHg | hypotensive effect / effect on mean arterial pressure ([4]; i.v., 60 min post-injection): no effect | MAP ([5]; 15 min): 163 mm Hg | RBF ([5]; 15 min): 3.8 KHz | MAP ([5]; 30 min): 164 mm Hg | RBF ([5]; 30 min): 4.0 KHz | MAP ([5]; 45 min): 157 mm Hg | RBF ([5]; 45 min): 4.6 KHz | MAP ([5]; 60 min): 159 mm Hg | RBF ([5]; 60 min): 4.8 KHz | MAP ([5]; time zero (control)): 156 mm Hg | RBF ([5]; time zero (control)): 2.4 KHz | acute effect on mean arterial pressure [5, 6]: no acute effects | acute effect on renal blood flow [5, 6]: increased renal blood flow to a greater degree than fusaric acid | Renal blood flow change ([5]; anesthetized SHR, i.d. 100 mg/kg, 15 minutes after injection): unchanged | Renal Blood Flow ([5]; anesthetized SHR, i.d. 100 mg/kg, 30 minutes postinjection): 3.5 KHz | effect on mean arterial pressure ([5]; anesthetized SHR, i.d. 100 mg/kg, 60 minute observation): no effect | Renal Blood Flow ([5]; anesthetized SHR, i.d. 100 mg/kg, control period): 1.1 KHz | Renal blood flow course ([5]; anesthetized SHR, i.d. 100 mg/kg, following 30 minute observation period (30-60 min)): remained at this level

CCCCc1ccc(C(=O)O)nc1 [Fusaric Acid, 5-n-butylpicolinic acid]
stability of liberated fusaric acid ([2]; kidney homogenate incubation conditions): remains stable | MAP (SE) ([3]; 2.5 mg/hr i.v. infusion, day 1): 118 ± 5 mm Hg | MAP (SE) ([3]; 2.5 mg/hr i.v. infusion, day 2): 114 ± 7 mm Hg | MAP (SE) ([3]; 2.5 mg/hr i.v. infusion, day 3): 122 ± 5 mm Hg | MAP (SE) ([3]; 2.5 mg/hr i.v. infusion, day 4): 114 ± 6 mm Hg | MAP (SE) ([3]; 2.5 mg/hr i.v. infusion, day 5): 114 ± 3 mm Hg | MAP (SE) ([3]; 2.5 mg/hr i.v. infusion, day zero): 148 ± 6 mm Hg | chronic effect on mean arterial pressure compared to vehicle [3]: lowered mean arterial pressure similarly | Mean arterial pressure ([4]; 60 MIN post-injection): 110 ± 21 mmHg | Mean arterial pressure ([4]; ZERO (vehicle control period)): 164 ± 10 mmHg | MAP ([5]; 15 min): 111 mm Hg | RBF ([5]; 15 min): 3.1 KHz | MAP ([5]; 30 min): 106 mm Hg | RBF ([5]; 30 min): 3.2 KHz | MAP ([5]; 45 min): 103 mm Hg | RBF ([5]; 45 min): 3.4 KHz | MAP ([5]; 60 min): 99 mm Hg | RBF ([5]; 60 min): 3.9 KHz | MAP ([5]; time zero (control)): 155 mm Hg | RBF ([5]; time zero (control)): 2.5 KHz | acute effect on mean arterial pressure [5, 6]: decreased mean arterial pressure | acute effect on renal blood flow [5, 6]: increased renal blood flow
